Data as given in US6914045B2, “Glycopeptide antibiotics” (Wyeth Holdings Corporation, priority 2001, dated 2005).

Key:
Test in all cases: in vitro antibacterial evaluation, MIC by broth dilution
Format in all cases: cell-based
Enterococcus sp. = conditions: broth dilution, 18 hours at 35° C.
Outline: (§1)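 Inoculum 5×10^5 CFU/mL; concentrations 64 to 0.06 μg/mL; MIC defined as lowest inhibitory level. Conducted by broth dilution under NCCLS guidelines.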

Staphylococcus sp. = conditions: broth dilution, 18 hours at 35° C.; for MIC Staphylococcus aureus (ATCC 29213): strain ATCC 29213; for MIC Staphylococcus aureus (GC 1131): strain GC 1131; for MIC Staphylococcus aureus (GC 3051): strain GC 3051; for MIC Staphylococcus aureus (GC 3053): strain GC 3053; for MIC Staphylococcus aureus (GC 4541): strain GC 4541; for MIC Staphylococcus aureus (GC 4542): strain GC 4542; for MIC Staphylococcus aureus-SMITH (GC 4543): strain GC 4543; for MIC Staphylococcus aureus (GC 4544): strain GC 4544; for MIC Staphylococcus aureus (GC 4545): strain GC 4545; for MIC Staphylococcus haemolyticus (GC 4546): strain GC 4546; for MIC Coagulase Negative Staphylococcus (GC 4547): strain GC 4547; for MIC Coagulase Negative Staphylococcus (GC 4548): strain GC 4548; for MIC Coagulase Negative Staphylococcus (GC 4549): strain GC 4549; for MIC Coagulase Negative Staphylococcus (GC 4551): strain GC 4551; for MIC Coagulase Negative Staphylococcus (GC 6257): strain GC 6257
Outline: as §1

Streptococcus sp. = conditions: broth dilution, 18 hours at 35° C.
Outline: as §1

Escherichia coli = conditions: 18 hours at 35° C.
[1] = strain ATCC 25922, broth dilution

CC(c1ccccc1)C1NC(=O)CNC(=O)C(CO)NC(=O)C(C(O)C2CNC(=N)N2C2OC(CO)C(O)C(O)C2O)NC(=O)C(C(O)C2CNC(=N)N2)NC(=O)C(Cc2ccc(OC3OC(CO)C(OC4OC5COC6(CC7CCC6(C)C7(C)C)OC5C(O)C4O)C(O)C3O)cc2)NC1=O (stereo not shown) [Example 214]
0.5 µg/mL: MIC Staphylococcus aureus-SMITH (GC 4543) (Staphylococcus sp.) | MIC Coagulase Negative Staphylococcus (GC 4549) (Staphylococcus sp.)
<0.12 µg/mL: MIC Streptococcus agalactiae (GC 4564) (Streptococcus sp.) | MIC Streptococcus pneumoniae (ATCC 6301) (Streptococcus sp.) | MIC Streptococcus pneumoniae (GC 1894) (Streptococcus sp.) | MIC Streptococcus pneumoniae (GC 4565) (Streptococcus sp.) | MIC Streptococcus pyogenes (GC 4563) (Streptococcus sp.) | MIC Streptococcus pneumoniae (ATCC 6301) (Streptococcus sp.; inoculum 5×10^5 CFU/mL, strain ATCC 6301) | MIC Streptococcus pneumoniae (GC 1894) (Streptococcus sp.; inoculum 5×10^5 CFU/mL, strain GC 1894) | MIC Streptococcus pyogenes (GC 4563) (Streptococcus sp.; inoculum 5×10^5 CFU/mL, strain GC 4563) | MIC Streptococcus agalactiae (GC 4564) (Streptococcus sp.; inoculum 5×10^5 CFU/mL, strain GC 4564) | MIC Streptococcus pneumoniae (GC 4565) (Streptococcus sp.; inoculum 5×10^5 CFU/mL, strain GC 4565)
64 µg/mL: MIC Escherichia coli (ATCC 25922) (Escherichia coli) | MIC Escherichia coli (GC 4559) (Escherichia coli)
1 µg/mL: MIC Enterococcus faecium (GC 2243) (Enterococcus sp.) | MIC Enterococcus faecium (GC 2243) (Enterococcus sp.; inoculum 5×10^5 CFU/mL, strain GC 2243) | MIC Staphylococcus aureus (GC 1131) (Staphylococcus sp.) | MIC Staphylococcus aureus (GC 4542) (Staphylococcus sp.) | MIC Staphylococcus aureus (GC 4544) (Staphylococcus sp.) | MIC Staphylococcus haemolyticus (GC 4546) (Staphylococcus sp.) | MIC Coagulase Negative Staphylococcus (GC 4547) (Staphylococcus sp.) | MIC Coagulase Negative Staphylococcus (GC 4548) (Staphylococcus sp.) | MIC Coagulase Negative Staphylococcus (GC 4551) (Staphylococcus sp.)
32 µg/mL: MIC Staphylococcus aureus (GC 3051) (Staphylococcus sp.)
2 µg/mL: MIC Enterococcus avium (GC 4558) (Enterococcus sp.) | MIC Enterococcus faecalis (ATCC 29212) (Enterococcus sp.) | MIC Enterococcus faecalis (GC 2242) (Enterococcus sp.) | MIC Enterococcus faecalis (GC 2691) (Enterococcus sp.) | MIC Enterococcus faecalis (GC 3059) (Enterococcus sp.) | MIC Enterococcus faecalis (GC 4552) (Enterococcus sp.) | MIC Enterococcus faecalis (GC 4553) (Enterococcus sp.) | MIC Enterococcus faecalis (GC 4554) (Enterococcus sp.) | MIC Enterococcus faecalis (GC 6189) (Enterococcus sp.) | MIC Enterococcus faecium (GC 4556) (Enterococcus sp.) | MIC Enterococcus faecium (GC 4557) (Enterococcus sp.) | MIC Enterococcus faecalis (ATCC 29212) (Enterococcus sp.; inoculum 5×10^5 CFU/mL, strain ATCC 29212) | MIC Enterococcus faecalis (GC 2242) (Enterococcus sp.; inoculum 5×10^5 CFU/mL, strain GC 2242) | MIC Enterococcus faecalis (GC 2691) (Enterococcus sp.; inoculum 5×10^5 CFU/mL, strain GC 2691) | MIC Enterococcus faecalis (GC 3059) (Enterococcus sp.; inoculum 5×10^5 CFU/mL, strain GC 3059) | MIC Enterococcus faecalis (GC 4552) (Enterococcus sp.; inoculum 5×10^5 CFU/mL, strain GC 4552) | MIC Enterococcus faecalis (GC 4553) (Enterococcus sp.; inoculum 5×10^5 CFU/mL, strain GC 4553) | MIC Enterococcus faecalis (GC 4554) (Enterococcus sp.; inoculum 5×10^5 CFU/mL, strain GC 4554) | MIC Enterococcus faecium (GC 4556) (Enterococcus sp.; inoculum 5×10^5 CFU/mL, strain GC 4556) | MIC Enterococcus faecium (GC 4557) (Enterococcus sp.; inoculum 5×10^5 CFU/mL, strain GC 4557) | MIC Enterococcus avium (GC 4558) (Enterococcus sp.; inoculum 5×10^5 CFU/mL, strain GC 4558) | MIC Enterococcus faecalis (GC 6189) (Enterococcus sp.; inoculum 5×10^5 CFU/mL, strain GC 6189) | MIC Staphylococcus aureus (ATCC 29213) (Staphylococcus sp.) | MIC Staphylococcus aureus (GC 3053) (Staphylococcus sp.) | MIC Staphylococcus aureus (GC 4541) (Staphylococcus sp.) | MIC Staphylococcus aureus (GC 4545) (Staphylococcus sp.) | MIC Escherichia coli (GC 4560) (Escherichia coli)

CC(c1ccccc1)C1NC(=O)CNC(=O)C(CO)NC(=O)C(C(O)C2CNC(=N)N2C2OC(CO)C(O)C(O)C2O)NC(=O)C(C(O)C2CNC(=N)N2)NC(=O)C(Cc2ccc(O)c(N(C)C)c2)NC1=O (stereo not drawn) [Example 12, Cyclo[glycyl-β-methylphenylalanyl-3-(dimethylamino)tyrosyl-3-(2-iminoimidazolidin-4-yl)-seryl-3-(3-hexopyranosyl-2-iminoimidazolidin-4-yl)serylseryl]]
>128 µg/mL: MIC Enterococcus faecalis (ATCC 29212) (Enterococcus sp.; strain ATCC 29212) | MIC Enterococcus faecalis (GC 2242) (Enterococcus sp.; strain GC 2242) | MIC Enterococcus faecium (GC 2243) (Enterococcus sp.; strain GC 2243) | MIC Enterococcus faecalis (GC 2691) (Enterococcus sp.; strain GC 2691) | MIC Enterococcus faecalis (GC 3059) (Enterococcus sp.; strain GC 3059) | MIC Enterococcus faecalis (GC 4552) (Enterococcus sp.; strain GC 4552) | MIC Enterococcus faecalis (GC 4553) (Enterococcus sp.; strain GC 4553) | MIC Enterococcus faecalis (GC 4554) (Enterococcus sp.; strain GC 4554) | MIC Enterococcus faecium (GC 4556) (Enterococcus sp.; strain GC 4556) | MIC Enterococcus faecium (GC 4557) (Enterococcus sp.; strain GC 4557) | MIC Enterococcus faecalis (GC 6189) (Enterococcus sp.; strain GC 6189) | MIC Staphylococcus aureus (ATCC 29213) (Staphylococcus sp.) | MIC Staphylococcus aureus (GC 1131) (Staphylococcus sp.) | MIC Staphylococcus aureus (GC 3051) (Staphylococcus sp.) | MIC Staphylococcus aureus (GC 3053) (Staphylococcus sp.) | MIC Staphylococcus aureus (GC 4541) (Staphylococcus sp.) | MIC Staphylococcus aureus (GC 4542) (Staphylococcus sp.) | MIC Staphylococcus aureus-SMITH (GC 4543) (Staphylococcus sp.) | MIC Staphylococcus aureus (GC 4544) (Staphylococcus sp.) | MIC Staphylococcus aureus (GC 4545) (Staphylococcus sp.) | MIC Staphylococcus haemolyticus (GC 4546) (Staphylococcus sp.) | MIC Coagulase Negative Staphylococcus (GC 4547) (Staphylococcus sp.) | MIC Coagulase Negative Staphylococcus (GC 4548) (Staphylococcus sp.) | MIC Coagulase Negative Staphylococcus (GC 4549) (Staphylococcus sp.) | MIC Coagulase Negative Staphylococcus (GC 4551) (Staphylococcus sp.) | MIC Coagulase Negative Staphylococcus (GC 6257) (Staphylococcus sp.) | MIC Streptococcus pneumoniae (ATCC 6301) (Streptococcus sp.; strain ATCC 6301) | MIC Streptococcus pyogenes (GC 4563) (Streptococcus sp.; strain GC 4563) | MIC Escherichia coli (ATCC 25922) (Escherichia coli; [1]) | MIC Escherichia coli (GC 4559) (Escherichia coli; strain GC 4559, broth dilution)
128 µg/mL: MIC Enterococcus avium (GC 4558) (Enterococcus sp.; strain GC 4558) | MIC Streptococcus pneumoniae (GC 1894) (Streptococcus sp.; strain GC 1894) | MIC Streptococcus agalactiae (GC 4564) (Streptococcus sp.; strain GC 4564) | MIC Streptococcus pneumoniae (GC 4565) (Streptococcus sp.; strain GC 4565) | MIC Escherichia coli (GC 4560) (Escherichia coli; strain GC 4560, broth dilution)

CCCCCCC(=O)Nc1cc(CC2NC(=O)C(C(C)c3ccccc3)NC(=O)CNC(=O)C(CO)NC(=O)C(C(O)C3CNC(=N)N3C3OC(CO)C(O)C(O)C3O)NC(=O)C(C(O)C3CNC(=N)N3)NC2=O)ccc1O (stereo not drawn) [Example 16, Cyclo[glycyl-β-methylphenylalanyl-3-(heptanamido)tyrosyl-3-(2-iminoimidazolidin-4-yl)seryl-3-(3-hexopyranosyl-2-iminoimidazolidin-4-yl)serylseryl]]
64 µg/mL: MIC Enterococcus faecalis (GC 4553) (Enterococcus sp.; strain GC 4553) | MIC Staphylococcus aureus (GC 4541) (Staphylococcus sp.) | MIC Staphylococcus aureus-SMITH (GC 4543) (Staphylococcus sp.) | MIC Streptococcus pneumoniae (GC 1894) (Streptococcus sp.; strain GC 1894) | MIC Streptococcus agalactiae (GC 4564) (Streptococcus sp.; strain GC 4564)
>128 µg/mL: MIC Enterococcus faecalis (ATCC 29212) (Enterococcus sp.; strain ATCC 29212) | MIC Enterococcus faecalis (GC 2242) (Enterococcus sp.; strain GC 2242) | MIC Enterococcus faecalis (GC 2691) (Enterococcus sp.; strain GC 2691) | MIC Enterococcus faecalis (GC 3059) (Enterococcus sp.; strain GC 3059) | MIC Enterococcus faecalis (GC 4552) (Enterococcus sp.; strain GC 4552) | MIC Enterococcus faecalis (GC 4554) (Enterococcus sp.; strain GC 4554) | MIC Enterococcus faecium (GC 4556) (Enterococcus sp.; strain GC 4556) | MIC Enterococcus faecalis (GC 6189) (Enterococcus sp.; strain GC 6189)
16 µg/mL: MIC Enterococcus faecium (GC 4557) (Enterococcus sp.; strain GC 4557) | MIC Coagulase Negative Staphylococcus (GC 4547) (Staphylococcus sp.) | MIC Streptococcus pyogenes (GC 4563) (Streptococcus sp.; strain GC 4563)
4 µg/mL: MIC Coagulase Negative Staphylococcus (GC 4549) (Staphylococcus sp.)
8 µg/mL: MIC Staphylococcus haemolyticus (GC 4546) (Staphylococcus sp.) | MIC Coagulase Negative Staphylococcus (GC 6257) (Staphylococcus sp.) | MIC Escherichia coli (GC 4560) (Escherichia coli; strain GC 4560, broth dilution)
128 µg/mL: MIC Enterococcus faecium (GC 2243) (Enterococcus sp.; strain GC 2243) | MIC Enterococcus avium (GC 4558) (Enterococcus sp.; strain GC 4558) | MIC Staphylococcus aureus (ATCC 29213) (Staphylococcus sp.) | MIC Staphylococcus aureus (GC 1131) (Staphylococcus sp.) | MIC Staphylococcus aureus (GC 3051) (Staphylococcus sp.) | MIC Staphylococcus aureus (GC 3053) (Staphylococcus sp.) | MIC Staphylococcus aureus (GC 4542) (Staphylococcus sp.) | MIC Staphylococcus aureus (GC 4544) (Staphylococcus sp.) | MIC Streptococcus pneumoniae (ATCC 6301) (Streptococcus sp.; strain ATCC 6301) | MIC Streptococcus pneumoniae (GC 4565) (Streptococcus sp.; strain GC 4565)
32 µg/mL: MIC Staphylococcus aureus (GC 4545) (Staphylococcus sp.) | MIC Coagulase Negative Staphylococcus (GC 4548) (Staphylococcus sp.) | MIC Coagulase Negative Staphylococcus (GC 4551) (Staphylococcus sp.) | MIC Escherichia coli (ATCC 25922) (Escherichia coli; [1]) | MIC Escherichia coli (GC 4559) (Escherichia coli; strain GC 4559, broth dilution)
